Assay results published in patent publication US20260070903A1, “NOVEL PYRIDO[3,4-D]PYRIMIDIN-8-ONE DERIVATIVE HAVING PROTEIN KINASE INHIBITORY ACTIVITY, AND PHARMACEUTICAL COMPOSITION FOR PREVENTING, ALLEVIATING, OR TREATING CANCER, COMPRISING SAME” (KOREA INSTITUTE OF SCIENCE AND TECHNOLOGY, priority 2019, published 2026).

Legend:
Details in all cases: single concentration of 1 μM, read-out: percent inhibition of kinase
ACK1 = ACK1 (Homo sapiens, UniProt Q07912); test: Kinase panel biochemical assay, ACK1
Protocol: (§1) As a test compound, Compound No. 55 was used. The percent inhibition of each kinase when treated with the test compound at a single concentration of 1 μM was measured, and the residual enzyme activity values (%) of the kinases were calculated. Kinases whose calculated residual enzyme activity values (%) was 30% or less (i.e., kinases inhibited by 70% or more) are as follows: […]

DDR2 = DDR2 (Homo sapiens, UniProt Q16832); test: Kinase panel biochemical assay, DDR2
Protocol: as §1

EPHA2 = EPHA2 (Homo sapiens, UniProt P29317); test: Kinase panel biochemical assay, EPHA2
Protocol: as §1

EPHA1 = EPHA1 (Homo sapiens, UniProt P21709); test: Kinase panel biochemical assay, EPHA1
Protocol: as §1

Sequence of ACK1 (Q07912 whole entry): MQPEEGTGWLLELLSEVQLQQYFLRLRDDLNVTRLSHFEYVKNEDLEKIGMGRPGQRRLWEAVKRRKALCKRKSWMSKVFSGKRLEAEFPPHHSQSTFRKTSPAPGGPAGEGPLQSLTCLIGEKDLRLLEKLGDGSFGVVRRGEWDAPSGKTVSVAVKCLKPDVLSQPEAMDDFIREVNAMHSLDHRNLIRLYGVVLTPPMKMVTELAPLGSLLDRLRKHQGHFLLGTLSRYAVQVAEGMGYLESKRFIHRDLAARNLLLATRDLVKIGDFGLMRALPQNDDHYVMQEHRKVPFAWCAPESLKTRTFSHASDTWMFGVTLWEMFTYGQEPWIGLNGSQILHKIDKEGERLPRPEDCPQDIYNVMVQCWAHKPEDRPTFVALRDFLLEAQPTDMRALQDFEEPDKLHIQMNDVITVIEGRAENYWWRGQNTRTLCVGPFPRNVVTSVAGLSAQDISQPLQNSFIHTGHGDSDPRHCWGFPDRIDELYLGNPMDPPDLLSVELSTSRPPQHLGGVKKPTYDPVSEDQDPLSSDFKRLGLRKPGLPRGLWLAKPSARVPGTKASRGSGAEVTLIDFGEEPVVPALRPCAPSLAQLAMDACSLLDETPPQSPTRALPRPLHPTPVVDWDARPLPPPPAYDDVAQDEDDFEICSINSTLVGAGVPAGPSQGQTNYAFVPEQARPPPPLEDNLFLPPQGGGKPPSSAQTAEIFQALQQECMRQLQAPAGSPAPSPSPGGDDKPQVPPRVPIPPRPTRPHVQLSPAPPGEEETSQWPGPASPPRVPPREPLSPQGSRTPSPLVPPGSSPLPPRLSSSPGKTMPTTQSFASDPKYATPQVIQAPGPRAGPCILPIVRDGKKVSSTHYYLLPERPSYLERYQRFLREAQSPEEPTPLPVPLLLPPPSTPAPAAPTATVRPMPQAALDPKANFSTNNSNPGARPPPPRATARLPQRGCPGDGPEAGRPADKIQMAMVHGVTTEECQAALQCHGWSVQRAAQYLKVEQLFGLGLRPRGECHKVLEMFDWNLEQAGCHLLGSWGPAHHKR
Sequence of DDR2 (Q16832 22-855): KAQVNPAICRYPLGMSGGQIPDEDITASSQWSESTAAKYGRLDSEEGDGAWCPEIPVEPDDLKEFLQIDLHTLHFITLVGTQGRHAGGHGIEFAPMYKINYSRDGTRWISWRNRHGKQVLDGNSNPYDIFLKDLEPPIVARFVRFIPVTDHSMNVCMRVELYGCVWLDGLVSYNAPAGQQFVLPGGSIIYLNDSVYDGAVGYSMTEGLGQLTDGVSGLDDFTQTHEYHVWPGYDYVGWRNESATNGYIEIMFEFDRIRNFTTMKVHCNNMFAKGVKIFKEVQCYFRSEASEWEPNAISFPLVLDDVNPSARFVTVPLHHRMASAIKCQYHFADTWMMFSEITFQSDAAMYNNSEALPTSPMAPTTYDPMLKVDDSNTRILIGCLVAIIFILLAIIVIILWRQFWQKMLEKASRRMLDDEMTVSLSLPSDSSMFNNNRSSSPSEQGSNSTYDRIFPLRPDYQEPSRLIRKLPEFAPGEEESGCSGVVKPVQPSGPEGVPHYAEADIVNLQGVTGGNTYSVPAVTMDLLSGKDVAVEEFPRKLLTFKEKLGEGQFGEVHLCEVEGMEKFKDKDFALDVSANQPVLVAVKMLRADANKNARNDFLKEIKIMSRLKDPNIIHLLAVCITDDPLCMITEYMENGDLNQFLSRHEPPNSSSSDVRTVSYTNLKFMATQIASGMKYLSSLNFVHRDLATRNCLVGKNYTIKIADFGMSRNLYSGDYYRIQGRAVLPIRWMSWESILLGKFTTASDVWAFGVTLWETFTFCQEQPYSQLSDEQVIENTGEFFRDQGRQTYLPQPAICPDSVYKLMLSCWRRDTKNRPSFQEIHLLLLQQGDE
Sequence of EPHA1 (P21709 26-976): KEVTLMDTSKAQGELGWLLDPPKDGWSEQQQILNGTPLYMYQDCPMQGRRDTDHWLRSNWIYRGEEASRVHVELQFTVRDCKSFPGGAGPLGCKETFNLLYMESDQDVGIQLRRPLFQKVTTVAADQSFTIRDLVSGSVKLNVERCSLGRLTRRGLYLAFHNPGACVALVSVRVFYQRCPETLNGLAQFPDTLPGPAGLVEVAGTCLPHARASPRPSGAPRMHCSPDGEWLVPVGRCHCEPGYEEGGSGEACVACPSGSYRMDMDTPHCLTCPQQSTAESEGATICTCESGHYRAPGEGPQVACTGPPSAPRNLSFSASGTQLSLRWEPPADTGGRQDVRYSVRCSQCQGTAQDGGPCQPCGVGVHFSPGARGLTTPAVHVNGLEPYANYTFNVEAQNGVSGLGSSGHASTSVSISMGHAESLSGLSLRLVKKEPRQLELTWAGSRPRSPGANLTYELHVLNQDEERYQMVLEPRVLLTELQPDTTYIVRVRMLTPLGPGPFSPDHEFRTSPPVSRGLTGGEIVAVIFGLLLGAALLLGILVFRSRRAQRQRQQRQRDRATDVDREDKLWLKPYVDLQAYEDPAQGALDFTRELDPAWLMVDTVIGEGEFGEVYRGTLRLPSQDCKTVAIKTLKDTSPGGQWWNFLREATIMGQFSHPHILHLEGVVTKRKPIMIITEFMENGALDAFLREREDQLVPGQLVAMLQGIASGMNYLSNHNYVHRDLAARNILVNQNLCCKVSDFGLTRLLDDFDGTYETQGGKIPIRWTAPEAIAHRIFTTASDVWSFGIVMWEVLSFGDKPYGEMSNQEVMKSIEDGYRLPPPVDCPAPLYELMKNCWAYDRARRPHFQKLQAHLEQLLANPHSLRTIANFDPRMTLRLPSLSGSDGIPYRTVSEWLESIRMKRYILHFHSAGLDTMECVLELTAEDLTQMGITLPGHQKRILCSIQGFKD
Sequence of EPHA2 (P29317 24-976): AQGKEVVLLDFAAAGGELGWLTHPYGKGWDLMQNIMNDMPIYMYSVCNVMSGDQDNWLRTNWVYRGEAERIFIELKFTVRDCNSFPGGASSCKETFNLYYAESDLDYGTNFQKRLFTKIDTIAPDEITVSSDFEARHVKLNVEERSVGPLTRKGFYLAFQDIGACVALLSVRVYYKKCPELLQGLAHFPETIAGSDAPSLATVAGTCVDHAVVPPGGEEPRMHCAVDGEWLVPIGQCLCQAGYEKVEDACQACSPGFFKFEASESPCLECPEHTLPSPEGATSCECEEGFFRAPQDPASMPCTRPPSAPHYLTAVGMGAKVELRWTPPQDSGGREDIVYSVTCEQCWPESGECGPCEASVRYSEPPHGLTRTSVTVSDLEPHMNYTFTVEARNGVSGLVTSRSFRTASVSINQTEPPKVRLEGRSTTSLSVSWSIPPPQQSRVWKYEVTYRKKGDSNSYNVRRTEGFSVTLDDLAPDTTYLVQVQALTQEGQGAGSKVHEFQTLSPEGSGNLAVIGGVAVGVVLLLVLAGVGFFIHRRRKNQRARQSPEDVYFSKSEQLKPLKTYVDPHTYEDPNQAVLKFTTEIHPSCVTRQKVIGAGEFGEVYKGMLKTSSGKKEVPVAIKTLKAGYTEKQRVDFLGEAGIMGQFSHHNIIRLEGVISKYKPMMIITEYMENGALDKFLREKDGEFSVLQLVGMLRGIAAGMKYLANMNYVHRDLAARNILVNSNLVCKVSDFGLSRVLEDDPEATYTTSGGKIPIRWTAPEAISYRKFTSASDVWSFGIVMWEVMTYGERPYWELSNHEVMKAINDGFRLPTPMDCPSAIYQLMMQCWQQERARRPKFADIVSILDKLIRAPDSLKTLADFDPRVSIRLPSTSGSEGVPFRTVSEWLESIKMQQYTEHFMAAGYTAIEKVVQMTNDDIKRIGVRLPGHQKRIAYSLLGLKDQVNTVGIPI

inhibition at 1 µM (ACK1): ≥ 70%
inhibition at 1 µM (DDR2): ≥ 70%
inhibition at 1 µM (EPHA2): ≥ 70%
inhibition at 1 µM (EPHA1): ≥ 70%
SMILES: Cc1ccc(NC(=O)c2cccc(C(F)(F)F)c2)cc1-c1cc2cnc(N)nc2c(=O)[nH]1 [Compound No. 55, N-(3-(2-amino-8-oxo-7,8-dihydropyrido[3,4-d]pyrimidin-6-yl)-4-methylphenyl)-3-(trifluoromethyl)benzamide]
